Experimental data reported in patent publication US11608380B2, “Anti-EGFRvIII antibodies and uses thereof” (REGENERON PHARMACEUTICALS, INC., priority 2014, dated 2023).

Assays:
HEK293 = assay: Cell viability (CCK8) cell kill assay; format: cell-based
Experimental: (§1) Next, the ability of anti-human EGFRvIII antibodies conjugated to the maytansine toxin DM1 to reduce cell viability was determined using in vitro cell based assays. Cells were seeded in PDL-coated 96 well plates at 250-2000 cells per well in complete growth media and allowed to grow overnight. For cell viability curves, ADCs or free drug (DM1-SMe) was added to cells at final concentrations ranging from 500 nM to 5 μM and incubated for 3 days. Cells were incubated with CCK8 (Dojindo) for the final 1-3 h and the absorbance at 450 nm (OD450) was determined on the Flexstation3 (Molecular Devices). Background OD450 levels from digitonin (40 nM) treated cells was subtracted from all wells and viability is expressed as a percentage of the untreated controls. IC50 values were determined from a four-parameter logistic equation over a 10-point response curve (Graph Pad Prism). IC50 values are in nM and are normalized for the particular drug/antibody ratio (DAR).

MMT = assay: Cell viability (CCK8) cell kill assay; format: cell-based
Experimental: as §1

U251 = assay: Cell viability (CCK8) cell kill assay; format: cell-based; details: Table 18A
Experimental: as §1

HEK293/hEGFRvIII = assay: Cell viability (CCK8) cell kill assay; format: cell-based, human
Experimental: (§2) All cells were generated via lipofectamine 2000 based methodologies and were cultured in complete growth media in the presence of G418.
as §1, with “Cells were incubated with CCK8 (Dojindo) for the final 1-3 h and the absorbance at 450 nm (OD450) was determined on the Flexstation3 (Molecular Devices).” left out

HEK293/hEGFRwt = assay: Cell viability (CCK8) cell kill assay; format: cell-based, human; details: Table 18A
Experimental: as §2
as §1, with “Cells were incubated with CCK8 (Dojindo) for the final 1-3 h and the absorbance at 450 nm (OD450) was determined on the Flexstation3 (Molecular Devices).” left out

MMT/hEGFRvIII = assay: Cell viability (CCK8) cell kill assay; format: cell-based, human
Experimental: as §2
as §1, with “Cells were incubated with CCK8 (Dojindo) for the final 1-3 h and the absorbance at 450 nm (OD450) was determined on the Flexstation3 (Molecular Devices).” left out

U251/hEGFRvIII = assay: Cell viability (CCK8) cell kill assay; format: cell-based, human; details: Table 18B
Experimental: as §2
as §1, with “Cells were incubated with CCK8 (Dojindo) for the final 1-3 h and the absorbance at 450 nm (OD450) was determined on the Flexstation3 (Molecular Devices).” left out

EGFRvIII-mFc = format: binding, human
Experimental: (§3) Measurements were conducted on a T100 BIACORE™ instrument. […] In the receptor-capture format, either EGFRvIII-mFc or EGFR-mFc, was captured on the BIACORE™ chip and the respective antibodies flowed over. Kinetic association (ka) and dissociation (kd) rate constants were determined by processing and fitting the data to a 1:1 binding model using Scrubber 2.0 curve fitting software. Binding dissociation equilibrium constants (KD) and dissociative half-lives (t1/2) were calculated from the kinetic rate constants as: KD (M)=kd/ka; and t1/2 (min)=ln 2/(60*kd).

EGFR-mFc = EGFR-mFc (Homo sapiens, UniProt P00533); assay: SPR (BIACORE) binding kinetics, receptor-capture format; details: 37° C., EGFR-mFc captured, NB=no binding
Experimental: as §3

C-term biotin J-peptide = C-term biotin J-peptide (Homo sapiens, UniProt P00533, DELINS30-297G); assay: Antibody specificity by ELISA; details: ELISA binding, avidin pre-coated plates
Experimental: (§4) To further characterize anti-hEGFRvIII mAbs, their binding specificity was examined by ELISA. […] For the junctional peptides that were linked to biotin either at C-terminal (SEQ ID NO:149) or N-terminal (SEQ ID NO:150) via a linker, plates were pre-coated with avidin. Also, coated was an irrelevant peptide (control peptide) with or without biotin at its N-terminal. Anti-EGFRvIII antibodies as well as an isotype control antibody were added to coated plates and allowed to incubate for 1 hour at 25° C. The plates were then washed and bound anti-EGFRvIII mAbs were detected with anti-human Fc antibodies conjugated with horse-radish peroxidase (HRP). […] Data analysis used a sigmoidal dose-response model within PRISM™ software.

EGFR-mmh = EGFR-mmh (Homo sapiens, UniProt P00533); assay: Antibody specificity by ELISA; details: read-out: EC50 EGFR-mmh (25° C.), ELISA binding, plate coated with EGFR-mmh
Experimental: as §4

EGFRvIII-mmh = EGFRvIII-mmh (Homo sapiens, UniProt P00533, DELINS30-297G); assay: Antibody specificity by ELISA; details: ELISA binding, plate coated with EGFRvIII-mmh
Experimental: as §4

N-term biotin J-peptide = N-term biotin J-peptide (Homo sapiens, UniProt P00533, DELINS30-297G); assay: Antibody specificity by ELISA; details: ELISA binding, avidin pre-coated plates
Experimental: as §4

[1] = molecular target: junctional peptide (J-peptide) (Homo sapiens, UniProt P00533, DELINS30-297G); assay: Antibody specificity by ELISA; details: ELISA binding
Experimental: as §4

Control peptide = assay: Antibody specificity by ELISA; details: ELISA binding, irrelevant peptide
Experimental: (§5) To further characterize anti-hEGFRvIII mAbs, their binding specificity was examined by ELISA. […] For the junctional peptides that were linked to biotin either at C-terminal (SEQ ID NO:149) or N-terminal (SEQ ID NO:150) via a linker, plates were pre-coated with avidin. Also, coated was an irrelevant peptide (control peptide) with or without biotin at its N-terminal. Anti-EGFRvIII antibodies as well as an isotype control antibody were added to coated plates and allowed to incubate for 1 hour at 25° C. The plates were then washed and bound anti-EGFRvIII mAbs were detected with anti-human Fc antibodies conjugated with horse-radish peroxidase (HRP). Plates were developed with a tetra-methyl-benzidine (TMB) substrate solution to produce a colorimetric reaction and neutralized with sulfuric acid before reading absorbance at 450 nm on a VICTOR™ X5 plate reader. Data analysis used a sigmoidal dose-response model within PRISM™ software. […] NT: Not tested. Controls I-III: As described above.

[2] = test system: N-term Biotin control peptide; assay: Antibody specificity by ELISA; details: ELISA binding, irrelevant peptide with N-terminal biotin
Experimental: as §5

HEK293 cells = assay: FACS cell binding selectivity; format: cell-based; details: directly labeled (ALEXA FLUOR 488) antibodies, 10 μg/ml
Experimental: To determine the specificity of the anti-EGFRvIII mAbs, their binding to HEK293, HEK293 cells expressing EGFRvIII (HEK293/EGFRvIII) and A431 cells, was analyzed by fluorescence activated cell sorting (FACS). HEK293/EGFRvIII cells were prepared by transfecting HEK293 cells with neomycin resistant DNA vectors constitutively expressing full-length hEGFRvIII (SEQ ID NO:147) using LIPOFECTAMINE™ 2000 transfection reagent (INVITROGEN™). At two days post-transfection, cells were placed under G418 selection for approximately two weeks. Populations positively expressing EGFRvIII were isolated via fluorescence activated cell sorting (FACS). The HEK293 cells expressing ˜3×10^6 copies of EGFRvIII per cell were used in the experiment. Briefly, the anti-EGFRvIII antibodies at 10 μg/ml were incubated with cells for 30 minutes at room temperature, washed, incubated with secondary antibody, i.e., phycoerythrin (PE)-labeled goat F(ab′)2 against human IgG (cat #109-116-170, Jackson ImmunoResearch Laboratories), followed by a final wash before FACS analysis. In another set of experiment, anti-EGFRvIII antibodies were directly conjugated via their lysine residues with the fluorescent dye, ALEXA FLUOR® 488 Dye (INVITROGEN™), thereby eliminating the step using the secondary antibody. […] Controls I, II, III, IV and V are described above. MFI: Mean Fluorescence Intensity.

[3] = Table 20, HEK293, single ADC or 1:1 pairwise combination
[4] = Table 20, MMT, single ADC or 1:1 pairwise combination
[5] = Table 19, HEK293/hEGFRvIII (high)
[6] = Table 20, HEK293/hEGFRvIII, single ADC or 1:1 pairwise combination
[7] = Table 20, MMT/hEGFRvIII, single ADC or 1:1 pairwise combination
[8] = 37° C., receptor-capture, EGFRvIII-mFc captured

Molecule: DM1-SMe
- % Kill (HEK293; Table 18A, HEK293): 97%
- IC50 (HEK293; Table 18A, HEK293, 3 days, normalized for DAR): 0.31 nM
- % Kill (HEK293; Table 19, HEK293): 98%
- IC50 (HEK293; Table 19, HEK293): 0.19 nM
- % Kill (HEK293; [3]): 96%
- IC50 (HEK293; [3]): 0.21 nM
- % Kill (MMT; Table 18B, MMT): 96%
- IC50 (MMT; Table 18B, MMT, 3 days, normalized for DAR): 0.6 nM
- % Kill (MMT; Table 19, MMT): 100%
- IC50 (MMT; Table 19, MMT): 0.15 nM
- % Kill (MMT; [4]): 100%
- IC50 (MMT; [4]): 0.19 nM
- % Kill (U251; U251): 81%
- IC50 (U251; U251, 3 days, normalized for DAR): 1.8 nM
- % Kill (HEK293/hEGFRvIII; Table 18A, HEK293/hEGFRvIII): 99%
- IC50 (HEK293/hEGFRvIII; Table 18A, HEK293/hEGFRvIII, 3 days, normalized for DAR): 0.6 nM
- % Kill (HEK293/hEGFRvIII; [5]): 99%
- IC50 (HEK293/hEGFRvIII; [5]): 0.25 nM
- % Kill (HEK293/hEGFRvIII; [6]): 97%
- IC50 (HEK293/hEGFRvIII; [6]): 0.28 nM
- % Kill (HEK293/hEGFRwt): 95%
- IC50 (HEK293/hEGFRwt; 3 days, normalized for DAR): 0.57 nM
- % Kill (MMT/hEGFRvIII; Table 18B, MMT/hEGFRvIII): 100%
- IC50 (MMT/hEGFRvIII; Table 18B, MMT/hEGFRvIII, 3 days, normalized for DAR): 0.7 nM
- % Kill (MMT/hEGFRvIII; Table 19, MMT/hEGFRvIII (high)): 99%
- IC50 (MMT/hEGFRvIII; Table 19, MMT/hEGFRvIII (high)): 0.18 nM
- % Kill (MMT/hEGFRvIII; [7]): 100%
- IC50 (MMT/hEGFRvIII; [7]): 0.19 nM
- % Kill (U251/hEGFRvIII): 83%
- IC50 (U251/hEGFRvIII; 3 days, normalized for DAR): 1.2 nM

B1: H1H1915N: human IgG1 Fc anti-EGFRvIII antibody with variable domains 1915; HCVR/LCVR SEQ ID NOs 82/90 (antibody, V domains shown)
VH: QVQLVESGGGVVQPGRSLRLSCAASGFTFSAYAMHWVRQAPGKGLEWVAVIWYDGSNKNYADSVKGRFTVSRDNSKNTLYLEMNSLRAEDTAVYYCARDLMVGVTNYWGQGTLVTVST
VL: DVVMTQSPLSLPVALGQPASISCRSSQSLVYTDGNTYLNWFHQRPGQSPRRLIYKVSNRDSGVPDRFTGSGSGTDFTLKISRVEAEDVGVFYCMQGSHWPPYTFGQGTKLEIK
modifications: human IgG1 Fc
- ka (EGFRvIII-mFc; [8]): 100000 M⁻¹ s⁻¹
- kd (EGFRvIII-mFc; [8]): 0.000328 s⁻¹
- selectivity for EGFRvIII over wild-type EGFR (EGFRvIII-mFc; receptor capture format (Table 4)): greatest selectivity
- ka (EGFR-mFc): 43500 M⁻¹ s⁻¹
- kd (EGFR-mFc): 0.00801 s⁻¹
- EC50 (C-term biotin J-peptide): > 10 nM
- EC50 (EGFR-mmh): > 10 nM
- EC50 EGFRvIII-mmh (25° C.) (EGFRvIII-mmh): strong binding
- EC50 (N-term biotin J-peptide): > 10 nM
- EC50 [1]: > 10 nM
- EC50 (Control peptide): > 10 nM
- EC50 [2]: > 10 nM
- Parental HEK293 MFI (HEK293 cells): 3461
